Results taken from US20260137707A1, “METHODS OF MODULATING ATXN2 EXPRESSION” (University of Utah Research Foundation, priority 2022, published 2026).
“Also recorded” adds a separate entry of the source. Where two headings read alike, the source gives them in different places.

Tests used:
[1] = system: ATXN2-Q22; experiment: BAC-Q22 mice, ATXN2 western blot; format: in vivo
Experimental: (§1) BAC-ATXN2-Q22 (BAC-Q22) mice were used as previously described. BAC-Q22 are transgenic for the complete human ATXN2 gene with all introns and exons, including 16 kb upstream sequence driving ATXN2 expression and the complete 3′-UTR. The mice used in this study were maintained on a mixed B6;D2 background with backcrossing to wildtype vendor-purchased (Jackson Laboratories) mice every five generations. Mice were treated with 17-DMAG or HSP990 by intraperitoneal (IP) injection, 200-300 μl total volume. 17-DMAG was diluted in 40% DMSO and 0.05% Tween 20 and mice received 100 mg/kg 17-DMAG. HSP990 was diluted in 0.6% DMSO and 0.05% Tween 20 and mice received 4 mg/kg HSP990. Control treated mice included vehicle alone. Mice were treated repeatedly as described in Results. Mouse husbandry and surgical procedures were in accordance to Institutional Animal Care and Use Committee (IACUC) approved protocols.
Proteins were prepared, separated on precast polyacrylamide gels (Bio-Rad), transferred to Hybond (Amersham) and detected by ECL (Amersham) as previously described.
(§2) Antibodies included the following: mouse monoclonal anti-Ataxin-2 antibody (Clone 22/Ataxin-2) (BD Biosciences, 611378), rabbit monoclonal anti-Hsp70 antibody (EPR16892) (Abcam, ab181606), mouse monoclonal anti-β-Actin-peroxidase antibody (clone AC-15) (Sigma-Aldrich, A3854), rabbit polyclonal anti-Staufen antibody (Novus Biologicals, NBP1-33202), mouse monoclonal anti-CHOP (L63F7) antibody (Cell Signaling Technology, 2895), rabbit polyclonal anti-phospho-eIF2a (Ser51) antibody (Cell Signaling Technology, 9721), rabbit polyclonal anti-mTOR antibody (Cell Signaling Technology, 2972), rabbit polyclonal anti-SQSTM1/p62 antibody (Cell Signaling Technology, 5114), rabbit polyclonal anti-LC3B antibody (Novus Biologicals, NB100-2220), rabbit monoclonal anti-BiP antibody (C50B12) (Cell Signaling Technology, 3177). Secondary antibodies included peroxidase-conjugated horse anti-mouse IgG (Vector Laboratories, PI-2000) and peroxidase AffiniPure goat anti-rabbit IgG (Jackson ImmunoResearch Laboratories, 111-035-144).
Since 17-DMAG reduced expression of both the wildtype and mutant ATXN2 proteins, its effects were tested using only ATXN2-BAC mice harboring the non-mutant human ATXN2-Q22 gene (BAC-Q22 mice). Reliable detection of mutant ATXN2 protein by western blot in samples isolated from SCA2 BAC mice is possible, but it is challenging and involves use of the 1C2 antibody. To test efficacy of 17-DMAG in the wildtype ATXN2 mice, 27 wk old BAC-Q22 mice were treated (n=4 per group, 2 males, 2 females) every other day over 16-days (days 1, 3, 5, 7, 9, 11, 13, 15) then sacrificed on day 16. […] Three blots were quantified.

[2] = system: ATXN3; details: ATXN3-135Q transgenic mice, cited from earlier work
[3] = system: STAU1, mTOR, p62, LC3b, CHOP, eIF3α, BiP; experiment: Western blot of STAU1, autophagy and UPR proteins in ATXN2-Q58 HEK-293 KI cells; format: cell-based
Source text: as §2
To determine if lowering ATXN2-Q58 in HEK-293 KI cells could restore pathways that are abnormal in SCA2, several proteins were evaluated by western blotting and RNAs by quantitative PCR following 17-DMAG treatment. […] Probabilities are from one-way ANOVA and post-hoc Bonferroni corrected t-tests: ns, not significant; *, p<0.05; **, p<0.01, ***, p<0.001. […]

[4] = cited from earlier work
[5] = system: ATXN2-luc mRNA; experiment: ATXN2-luc mRNA abundance in H2 cells by quantitative PCR; format: cell-based; details: 1 and 10 uM, 48 hrs
Source text: (§6) Total RNA was extracted from cells cultured in 24-well plates using the RNeasy Mini-Kit (Qiagen Inc.) according to the manufacturer's protocol. DNAse I treated RNAs were used to synthesize cDNA using ProtoScript cDNA synthesis kit (New England Biolabs Inc.). Sets of primers used for qPCR included ATXN2 primers ATXN2-F (5′-[sequence]-3′) & ATXN2-R (5′-[sequence]-3′), ATP1A2 primers ATP1A2-F (5′-[sequence]-3′) & ATP1A2-R (5′-[sequence]-3′), GAPDH primers GAPDH-F133 (5′-[sequence]-3′) & GAPDH-R333 (5′-[sequence]-3′), and mouse Actb primers Actb-F (5′-[sequence]-3′) & Actb-R (5′-[sequence]-3′). qPCR was performed in the Bio-Rad CFX96 instrument (Bio-Rad Inc.) with the Power SYBR Green PCR master mix (Applied Biosystems Inc.). PCR amplification was carried out for 45 cycles. Cycling parameters were denaturation (95° C. for 10 s), annealing (60° C. for 10 s), extension (72° C. for 40 s).
The ATXN2-luc mRNA abundance was determined by quantitative PCR using primers that amplify the luciferase gene. Probabilities are from one-way ANOVA and post-hoc Bonferroni corrected t-tests: ns, not significant; **, P<0.01.

[6] = BAC-Q22 mice, survival / tolerability; format: in vivo; details: IP every other day, 17-DMAG 100 mg/kg, HSP990 4 mg/kg
Experimental: as §1
Since 17-DMAG reduced expression of both the wildtype and mutant ATXN2 proteins, its effects were tested using only ATXN2-BAC mice harboring the non-mutant human ATXN2-Q22 gene (BAC-Q22 mice). Reliable detection of mutant ATXN2 protein by western blot in samples isolated from SCA2 BAC mice is possible, but it is challenging and involves use of the 1C2 antibody. […] Three blots were quantified. […]

[7] = system: HSP70; experiment: BAC-Q22 mice, HSP70 western blot; format: in vivo; details: IP every other day, 17-DMAG 100 mg/kg, HSP990 4 mg/kg
Experimental: as §1
Proteins were prepared, separated on precast polyacrylamide gels (Bio-Rad), transferred to Hybond (Amersham) and detected by ECL (Amersham) as previously described. […]
Since 17-DMAG reduced expression of both the wildtype and mutant ATXN2 proteins, its effects were tested using only ATXN2-BAC mice harboring the non-mutant human ATXN2-Q22 gene (BAC-Q22 mice). […] Three blots were quantified.

[8] = system: HSP70; experiment: Western blot of HSP70 in cells (HSP90 target engagement); format: cell-based; details: cultured cells, western blotting
Source text: (§7) Probabilities are from one-way ANOVA and post-hoc Bonferroni corrected t-tests: ns, not significant; **, P<0.01.
Probabilities are from one-way ANOVA and post-hoc Bonferroni corrected t-tests: ns, not significant; *, p<0.05; **, p<0.01, ***, p<0.001. The n number of blots ranged from 3 to 9.

[9] = system: endogenous non-mutant ATXN2 protein; experiment: Western blot of endogenous non-mutant ATXN2 protein in HEK-293 cells; format: cell-based; details: western blotting
[10] = system: mutant ATXN2-Q58 protein; experiment: Western blot of mutant ATXN2-Q58 protein in HEK-293 KI cells; format: cell-based; details: western blotting
Source text: The n number of blots ranged from 3 to 9.

[11] = system: ATXN2-luc; details: H2 cells
[12] = system: ATXN2-luc; details: average ATXN2-luc response of H2 and S1 cells
[13] = system: ATXN2-luc; experiment: qHTS (NCGC LOPAC pilot and primary), Steady-Glo luciferase, 1536-well; format: cell-based
Experimental: 4 μl of S2 cell suspension in phenol-red free DMEM was dispensed into wells of 1536-well assay plates. […] Next, SteadyGlo luciferase substrate detection reagent (3 μl) was added to each well and incubated for an additional 5 minutes at room temperature. Luminescence was then measured on the ViewLux imager equipped with clear filters using a 2 sec exposure. All screening operations were performed on a fully integrated robotic system (Kalypsys) containing one RX-130 and two RX-90 anthropomorphic robotic arms (Staubli). Vehicle-only plates, with DMSO being pin-transferred to columns 5-48, were inserted uniformly at the beginning and the end of each library in order to monitor and record any shifts in assay performance.
Screening to optimize the assay in 1536-well format was conducted at the NCGC laboratory using S2 cells. […] Cytotoxicity was determined using a multiplexed viability assay (CellTiter-Fluor). […] Cells were plated 1000 cells/well in 1536 well plates. Plates were assayed for ATXN2-luc expression (Steady-Glo) and compound effect on cell abundance (CellTiter-Fluor), with increases shown for each well indicated by red, and decreases indicated by blue.
A fluorescence-based viability assay using GF-AFC substrate was used to determine compound effect on cell viability and Steady-Glo was used to measure luciferase in a multiplexed assay.

[14] = system: ATXN2-luc; experiment: Secondary assays, Bright-Glo luciferase in H2 and S2 cells; format: cell-based; details: for min ATXN2-luc: minimum ATXN2-luc luciferase over 12 doses, H2 and S2 cells
Experimental: (§3) Compounds were plated at 2× concentrations in 25 μl in 384 well plates with each compound dose plated in triplicate. An equal volume of S2, H2, or SC cells (24,000 cells/well) suspended in phenol-red free Dulbecco's Modified Eagle Medium (DMEM) with 10% fetal bovine serum and 1× penicillin/streptomycin were added. Cells were grown 24 hrs then assayed first by using the CellTiter-Fluor reagent (20 μl) followed by the addition of Bright-Glo ([…]) luciferase assay, using a multimode plate reader (Beckman DT880). Values were reported as the mean±standard deviation (SD) with n=3. IC50s were determined by the Hill coefficient method using an online tool (https://www.aatbio.com/tools/ic50-calculator).
(§4) These 46 compounds were retested at 12 doses and a zero-compound dose, in multiplexed assays in 96-well plates using CellTiter-Fluor to determine cell viability, then Bright-Glo to determine luciferase expression. The values for H2 and S2 were used as replicates to calculate IC50s and to assess cell viability.
(§5) For CMV-luc and viability charts, the fitted lines are second-order polynomials. Means and SD are shown.

[15] = system: CMV-luc; experiment: Secondary assays, Bright-Glo luciferase in SC cells; format: cell-based; details: minimum CMV-luc luciferase in SC cells over 12 doses
Experimental: as §3, §5

[16] = system: H2, S2, and SC cells; experiment: in vitro
Experimental: as §3, §4, §5

[17] = system: H2 cells; experiment: Orthogonal paired MTT viability in H2 cells; format: cell-based; details: at 1 nM
Experimental: ATXN2 expression associates with the expression of the proscillaridin A target ATP1A2. […] The cells were also evaluated for viability by MTT assay. Values shown are means and standard deviations. HEK-293 cells were then treated with increasing doses of proscillaridin A for either 24 and 48 hours, showing >50% reduction of endogenous ATXN2 when cells were treated with 1 nM proscillaridin A at 48 hours.

[18] = system: ATXN2-luc; experiment: Orthogonal ATXN2-luc luciferase assay in H2 cells; format: cell-based
Source text: as §7

[19] = system: endogenous ATXN2; experiment: Endogenous ATXN2 expression in HEK-293 cells by qPCR; format: cell-based
Source text: as §6, §7

[20] = Table 1, 24 hrs, single 10 μM dose, Z-score of luciferase
[21] = S2 cells, LOPAC1280 library, 24 hrs
[22] = ATXN2-luc, Bright-Glo, H2 and S2 values used as replicates, 12 doses, 96-well plates, read-out: Mean IC50
[23] = minimum cell viability, CellTiter-Fluor, over 12 doses

## CO[C@H]1/C=C\C=C(/C)C(=O)NC2=CC(=O)C(NCCN(C)C)=C(C[C@@H](C)C[C@H](OC)[C@H](O)[C@@H](C)/C=C(\C)[C@@H]1OC(N)=O)C2=O [17-DMAG, 17-dimethylaminoethylamino-17-demethoxygeldanamycin]
[1]; ATXN2-BAC mice, IP, 17-DMAG 100 mg/kg, HSP990 4 mg/kg
  reduction of ATXN2 protein abundance: 90%
[1]; BAC-Q22 mice, IP every other day, 17-DMAG 100 mg/kg 16 days, HSP990 4 mg/kg 10 days
  ATXN2 abundance: reduced ATXN2 abundance
[2]; CNS tissues
  ATXN3 protein abundance: reduced ATXN3 protein abundance in CNS tissues
[2]
  motor coordination: improved motor coordination
[3]
  BiP: further elevated BiP
  abundance of STAU1, autophagy marker proteins (mTOR, p62, LC3b) and UPR proteins CHOP and eIF3α: restored abundance
[4]
  oral bioavailability: orally bioavailable
[5]
  ATXN2-luc transcription: reduction of ATXN2-luc transcription
[6]
  survival / tolerability: well-tolerated
[7]
  HSP70: HSP70 induction
[8]
  HSP70: elevated HSP70; also recorded: increase in HSP70
[9]
  expression of endogenous non-mutant ATXN2 protein: reduced the expression; also recorded: reduction of endogenous non-mutant ATXN2 protein
[10]
  mutant ATXN2-Q58 protein: reduced the expression; also recorded: significantly reduced mutant ATXN2 protein; also recorded: reduction of ATXN2 protein

## C[C@H]1O[C@@H](O[C@H]2CC[C@]3(C=O)[C@H]4CC[C@]5(C)[C@@H](C6=CC(=O)OC6)CC[C@]5(O)[C@@H]4CC[C@]3(O)C2)C[C@H](O)[C@@H]1O [Helveticoside]
[11]; [20]
  SD from Mean: −2.733 SD
[11]; Table 5S, pilot screen, 10 μM
  SD from Mean: −2.733 SD
[12]
  Luc at 1 μm: 118
  Luc at 10 μm: 41
[13]; [21]
  Curve Class: −1.1

## S=C(NCCCN1CCOCC1)N1CCN(c2nc(-c3ccccc3)cs2)CC1 [MLS000706289]
[14]; [22]
  IC50: 6850 nM
[14]
  min ATXN2-luc: 61.65%
[15]
  min SC luc: 79.3%
[16]
  min viability: 89.11%

## CN(c1ccccc1CNc1nc(Nc2ccc3c(c2)CC(=O)N3)ncc1C(F)(F)F)S(C)(=O)=O [PF-431396]
[14]; [22]
  IC50: 2320 nM
[14]
  min ATXN2-luc: 15.51%
[15]
  min SC luc: 98.3%
[16]
  min viability: 64.59%

## Nc1ncnc2c1c(-c1cnc3[nH]ccc3c1)nn2C1CCCC1 [PP121]
[14]; [22]
  IC50: 4160 nM
[14]
  min ATXN2-luc: 27.48%
[15]
  min SC luc: 78.1%
[16]; [23]
  min viability: 50.39%

## Cc1cccc(Nc2nc(N[C@@H]3CCCC[C@@H]3N)ncc2C(N)=O)c1 [PRT-060318]
[14]; [22]
  IC50: 25400 nM
[14]
  min ATXN2-luc: 64.25%
[15]
  min SC luc: 86.82%
[16]
  min viability: 94.62%

## C[C@@H]1O[C@@H](O[C@@H]2C=C3CC[C@@H]4[C@H](CC[C@]5(C)[C@@H](c6ccc(=O)oc6)CC[C@]45O)[C@@]3(C)CC2)[C@H](O)[C@H](O)[C@H]1O [Proscillaridin A]
[17]
  cellular viability (MTT method): minimal effect on cellular viability
[11]; [20]
  SD from Mean: −7.684 SD
[11]; Table 5S, pilot screen, 10 μM
  SD from Mean: −7.684 SD
[18]; H2 cells treated for 48 hrs, read-out: IC50 (ATXN2-luc expression)
  IC50: 0.052 nM
[18]; H2 cells, at 1 nM
  ATXN2-luc reduction: 80%
[14]; H2 and S2 used as replicates, 24 hrs, read-out: IC50 (ATXN2-luc, secondary assays)
  IC50: 17 nM
[14]
  min ATXN2-luc: 7.986%
[15]
  min SC luc: 122%
[19]; 1 nM, 48 hours
  reduction of endogenous ATXN2: > 50%
[19]; 48 hrs
  IC50: 677 nM
[16]; [23]
  min viability: 74.18%
[12]
  Luc at 1 μm: 54
  Luc at 10 μm: 22

## CNC(=O)c1cc(Oc2ccc(NC(=O)Nc3cc(C(C)(C)C)nn3-c3ccc4ncccc4c3)c(F)c2)ccn1 [Rebastinib (DCC-2036)]
[14]; [22]
  IC50: 3730 nM
[14]
  min ATXN2-luc: 27.07%
[15]
  min SC luc: 60.58%
[16]
  min viability: 56.58%

## Cc1ccc(-c2ncn(-c3ccc(Nc4nccc(-c5cccc(N6CCOCC6)c5)n4)cc3)n2)cn1 [SR-3306]
[14]; [22]
  IC50: 1300 nM
[14]
  min ATXN2-luc: 15.65%
[15]
  min SC luc: 82.9%
[16]; [23]
  min viability: 65.37%

## Naltrindole hydrochloride
[13]; [21]
  Curve Class: −2.2

## Protriptyline hydrochloride
[13]
  Curve Class: −2.2
